Results on 1 molecule are retold here after patent US8420605B2, “Hydrogel compositions” (The University of Strathclyde, priority 2005, dated 2013).

In this series the test system is Human dermal fibroblasts. In kind it is cell-based. An excerpt:
In order to coarsely test cell viability, a Live/Dead assay was chosen in which two reagents of EthD-1 and Calcine AM were involved. […] With the help of this staining and fluorescence microscope, living and dead cells could be easily visualized therefore viability inside the culture is measured.
For making Fmoc-Phe-Phe-OH peptide solution, 0.0107 gram of Fmoc-Phe-Phe-OH was weighed in a glass vial and sterilized for 30 minutes by an ultraviolet light with bottles of distilled water, filtered NaOH (Sodium Hydroxide, 0.5 M/L), filtered HCl (Hydrochloric Acid, 0.5 M/L), and relevant apparatus (spatulas, pipettes, Vortex). 2 mL of the sterile distilled water was then added into the glass vial of Fmoc-Phe-Phe-OH, and the mixture was vortexed for a few seconds to create a suspension. Afterwards, approximate 100 μL of NaOH was gradually pipetted into the suspension (20 μL each pipetting) and the mixture was vortexed after every addition of the alkaline. […] The basic peptide solution (pH around 10) was finally neutralized to pH 7 by dropwise addition of HCl and pH values were monitored by a pH meter with a micro-probe. […]

Peptide text beside a SMILES is read from it. * marks the point of attachment. Fmoc = O=C(OCC1c2ccccc2-c2ccccc21)*

In the case of `O=C(N[C@@H](Cc1ccccc1)C(=O)N[C@@H](Cc1ccccc1)C(=O)O)OCC1c2ccccc2-c2ccccc21` [Entry 1, Fmoc-Phe-Phe-OH] (Fmoc-Phe-Phe-OH), the “cell viability (live/dead staining)” value was “majority of cells were shown to be living”. Also, the “cell spreading in the gel” value (during the first 3 days, 3D culture) is given as “did not complete spreading”.
